# Assay results: US20100099561A1, “HETEROBICYCLIC ALKYLTHIO-BRIDGED ISOXAZOLINES” (E.I. DU PONT DE NEMOURS AND COMPANY, priority 2008, published 2010)
# What was measured:
# Format in all cases: in vivo
# [1] = tested on: large crabgrass (Digitaria sanguinalis); assay: Test B preemergence, large crabgrass; details: scale 0 to 100
# Text: (§1) Seeds of plant species selected from blackgrass (Alopecurus myosuroides), downy bromegrass (Bromus tectorum), green foxtail (Setaria viridis), Italian ryegrass (Lolium multiflorum), wheat (Triticum aestivum), wild oat (Avena fatua), catchweed bedstraw (Galium aparine), bermudagrass (Cynodon dactylon), Surinam grass (Brachiaria decumbens), cocklebur (Xanthium strumarium), corn (Zea mays), large crabgrass (Digitaria sanguinalis), woolly cupgrass (Eriochloa villosa), giant foxtail (Setaria faberii), goosegrass (Eleusine indica), johnsongrass (Sorghum halepense), kochia (Kochia scoparia), lambsquarters (Chenopodium album), morningglory (Ipomoea coccinea), nightshade (eastern black nightshade, Solanum ptycanthum), yellow nutsedge (Cyperus esculentus), pigweed (Amaranthus retroflexus), ragweed (common ragweed, Ambrosia elatior), soybean (Glycine max), sunflower (common oilseed sunflower, Helianthus annuus), Russian thistle (Salsola kali), and velvetleaf (Abutilon theophrasti) were planted into a blend of loam soil and sand and treated preemergence with test compounds formulated in a non-phytotoxic solvent mixture which included a surfactant. Treated plants and controls were maintained in a greenhouse for 13 to 15 days, after which time all species were compared to controls and visually evaluated. Plant response ratings, summarized in Table B, are based on a scale of 0 to 100 where 0 is no effect and 100 is complete control. A dash (-) response means no test result.
# [2] = tested on: downy bromegrass (Bromus tectorum); assay: Test B preemergence, downy bromegrass; details: scale 0 to 100
# Text: as §1
# [3] = tested on: morningglory (Ipomoea spp.); assay: Test A postemergence, morningglory; details: 0 to 100 scale (0 no effect, 100 complete control)
# Summary of the method: (§2)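 Seeds planted in loam–sand blend; compounds in non-phytotoxic solvent with surfactant applied as directed preemergence soil spray, or postemergence to plants 2–10 cm tall at one- to two-leaf stage. After ~10 days in greenhouse, injury rated visually versus untreated controls on 0–100 scale (100 = complete control).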
# [4] = tested on: bermudagrass (Cynodon dactylon); assay: Test B preemergence, bermudagrass; details: scale 0 to 100
# Text: as §1
# [5] = tested on: ragweed (common ragweed, Ambrosia elatior); assay: Test B preemergence, ragweed; details: scale 0 to 100
# Text: as §1
# [6] = tested on: barnyardgrass (Echinochloa crus-galli); assay: Test A postemergence, barnyardgrass; details: 0 to 100 scale (0 no effect, 100 complete control)
# Summary of the method: as §2
# [7] = tested on: morningglory (Ipomoea spp.); assay: Test A preemergence, morningglory; details: 0 to 100 scale (0 no effect, 100 complete control)
# Summary of the method: as §2
# [8] = tested on: soybean (Glycine max); assay: Test B preemergence, soybean; details: Preemergence, scale 0 to 100
# Text: as §1
# [9] = tested on: woolly cupgrass (Eriochloa villosa); assay: Test B preemergence, woolly cupgrass; details: scale 0 to 100
# Text: as §1
# [10] = tested on: wheat (Triticum aestivum); assay: Test A preemergence, wheat; details: 0 to 100 scale (0 no effect, 100 complete control)
# Summary of the method: as §2
# [11] = tested on: wheat (Triticum aestivum); assay: Test A postemergence, wheat; details: 0 to 100 scale (0 no effect, 100 complete control)
# Summary of the method: as §2
# [12] = tested on: blackgrass (Alopecurus myosuroides); assay: Test B preemergence, blackgrass; details: scale 0 to 100
# Text: as §1
# [13] = tested on: lambsquarters (Chenopodium album); assay: Test B preemergence, lambsquarters; details: scale 0 to 100
# Text: as §1
# [14] = tested on: morningglory (Ipomoea coccinea); assay: Test B preemergence, morningglory; details: scale 0 to 100
# Text: as §1
# [15] = tested on: Surinam grass (Brachiaria decumbens); assay: Test B preemergence, Surinam grass; details: Preemergence, scale 0 to 100
# Text: as §1
# [16] = tested on: wild oat (Avena fatua); assay: Test B preemergence, wild oat; details: scale 0 to 100
# Text: as §1
# [17] = tested on: velvetleaf (Abutilon theophrasti); assay: Test B preemergence, velvetleaf; details: Preemergence, scale 0 to 100
# Text: as §1
# [18] = tested on: large crabgrass (Digitaria sanguinalis); assay: Test A postemergence, large crabgrass; details: 0 to 100 scale (0 no effect, 100 complete control)
# Summary of the method: as §2
# [19] = tested on: nightshade (eastern black nightshade, Solanum ptycanthum); assay: Test B preemergence, nightshade; details: scale 0 to 100
# Text: as §1
# [20] = tested on: Italian ryegrass (Lolium multiflorum); assay: Test B preemergence, Italian ryegrass; details: Preemergence, scale 0 to 100
# Text: as §1
# [21] = tested on: pigweed (Amaranthus retroflexus); assay: Test B preemergence, pigweed; details: scale 0 to 100
# Text: as §1
smiles,measurement,setting,value
CC1(C)CC(S(=O)(=O)Cc2c(C(F)(F)C(F)(F)F)nc3n(c2=O)CCCC3)=NO1 [Compound 21],"Plant response rating, Crabgrass, Large",[1]; 16 g ai/ha,20
same,"Plant response rating, Crabgrass, Large",[1]; 31 g ai/ha,95
same,"Plant response rating, Crabgrass, Large",[1]; 62 g ai/ha,98
same,"Plant response rating, Crabgrass, Large",[1]; 125 g ai/ha,100
same,"Plant response rating, Bromegrass, Downy",[2]; 16 g ai/ha,0
same,"Plant response rating, Bromegrass, Downy",[2]; 31 g ai/ha,0
same,"Plant response rating, Bromegrass, Downy",[2]; 62 g ai/ha,0
same,"Plant response rating, Bromegrass, Downy",[2]; 125 g ai/ha,60
same,"Plant response rating, Morningglory",[3]; 125 g ai/ha,0
same,"Plant response rating, Morningglory",[3]; 500 g ai/ha,40
same,"Plant response rating, Bermudagrass",[4]; 16 g ai/ha,90
same,"Plant response rating, Bermudagrass",[4]; 31 g ai/ha,100
same,"Plant response rating, Bermudagrass",[4]; 62 g ai/ha,100
same,"Plant response rating, Bermudagrass",[4]; 125 g ai/ha,100
same,"Plant response rating, Ragweed",[5]; 16 g ai/ha,0
same,"Plant response rating, Ragweed",[5]; 31 g ai/ha,0
same,"Plant response rating, Ragweed",[5]; 62 g ai/ha,0
same,"Plant response rating, Ragweed",[5]; 125 g ai/ha,10
same,"Plant response rating, Barnyardgrass",[6]; 125 g ai/ha,70
same,"Plant response rating, Barnyardgrass",[6]; 500 g ai/ha,90
same,"Plant response rating, Morningglory",[7]; 125 g ai/ha,0
same,"Plant response rating, Morningglory",[7]; 500 g ai/ha,50
same,"Plant response rating, Soybean",[8]; 16 g ai/ha,0
same,"Plant response rating, Soybean",[8]; 31 g ai/ha,0
same,"Plant response rating, Soybean",[8]; 62 g ai/ha,0
same,"Plant response rating, Soybean",[8]; 125 g ai/ha,0
same,"Plant response rating, Cupgrass, Woolly",[9]; 16 g ai/ha,100
same,"Plant response rating, Cupgrass, Woolly",[9]; 31 g ai/ha,100
same,"Plant response rating, Cupgrass, Woolly",[9]; 62 g ai/ha,100
same,"Plant response rating, Cupgrass, Woolly",[9]; 125 g ai/ha,100
same,"Plant response rating, Wheat",[10]; 125 g ai/ha,0
same,"Plant response rating, Wheat",[10]; 500 g ai/ha,40
same,"Plant response rating, Wheat",[11]; 125 g ai/ha,0
same,"Plant response rating, Wheat",[11]; 500 g ai/ha,20
same,"Plant response rating, Blackgrass",[12]; 16 g ai/ha,40
same,"Plant response rating, Blackgrass",[12]; 31 g ai/ha,40
same,"Plant response rating, Blackgrass",[12]; 62 g ai/ha,50
same,"Plant response rating, Blackgrass",[12]; 125 g ai/ha,98
same,"Plant response rating, Lambsquarters",[13]; 16 g ai/ha,0
same,"Plant response rating, Lambsquarters",[13]; 31 g ai/ha,0
same,"Plant response rating, Lambsquarters",[13]; 62 g ai/ha,0
same,"Plant response rating, Lambsquarters",[13]; 125 g ai/ha,98
same,"Plant response rating, Morningglory",[14]; 16 g ai/ha,0
same,"Plant response rating, Morningglory",[14]; 31 g ai/ha,10
same,"Plant response rating, Morningglory",[14]; 62 g ai/ha,80
same,"Plant response rating, Morningglory",[14]; 125 g ai/ha,100
same,"Plant response rating, Surinam Grass",[15]; 16 g ai/ha,50
same,"Plant response rating, Surinam Grass",[15]; 31 g ai/ha,50
same,"Plant response rating, Surinam Grass",[15]; 62 g ai/ha,50
same,"Plant response rating, Surinam Grass",[15]; 125 g ai/ha,100
same,"Plant response rating, Oat, Wild",[16]; 16 g ai/ha,0
same,"Plant response rating, Oat, Wild",[16]; 31 g ai/ha,30
same,"Plant response rating, Oat, Wild",[16]; 62 g ai/ha,30
same,"Plant response rating, Oat, Wild",[16]; 125 g ai/ha,40
same,"Plant response rating, Velvetleaf",[17]; 16 g ai/ha,0
same,"Plant response rating, Velvetleaf",[17]; 31 g ai/ha,0
same,"Plant response rating, Velvetleaf",[17]; 62 g ai/ha,0
same,"Plant response rating, Velvetleaf",[17]; 125 g ai/ha,75
same,"Plant response rating, Crabgrass, Large",[18]; 125 g ai/ha,50
same,"Plant response rating, Crabgrass, Large",[18]; 500 g ai/ha,80
same,"Plant response rating, Nightshade",[19]; 16 g ai/ha,50
same,"Plant response rating, Nightshade",[19]; 31 g ai/ha,50
same,"Plant response rating, Nightshade",[19]; 62 g ai/ha,75
same,"Plant response rating, Nightshade",[19]; 125 g ai/ha,90
same,"Plant response rating, Ryegrass, Italian",[20]; 16 g ai/ha,0
same,"Plant response rating, Ryegrass, Italian",[20]; 31 g ai/ha,0
same,"Plant response rating, Ryegrass, Italian",[20]; 62 g ai/ha,0
same,"Plant response rating, Ryegrass, Italian",[20]; 125 g ai/ha,40
same,"Plant response rating, Pigweed",[21]; 16 g ai/ha,0
same,"Plant response rating, Pigweed",[21]; 31 g ai/ha,0
same,"Plant response rating, Pigweed",[21]; 62 g ai/ha,0
same,"Plant response rating, Pigweed",[21]; 125 g ai/ha,98
